In brackets after ≈: the same amount, converted by molar mass. Several values for one entry are separate records, joined by “and”; a condition that tells them apart may be missing. Equal entries are not always repeated. Where two headings read alike, the source gives them in different places.
Key:
[1] = system: E. faecalis ATCC 29212; experiment: Broth microdilution MIC; assay type: cell-based, Enterococcus faecalis; conditions: for MIC: Enterococcus faecalis, ATCC29212, E. faecalis ATCC 29212
[2] = system: S. aureus ATCC 29213; experiment: Broth microdilution MIC; assay type: cell-based; conditions: Staphylococcus aureus, ATCC29213, S. aureus ATCC 29213
[3] = system: S. aureus ATCC 12598; experiment: Broth microdilution MIC; assay type: cell-based, Staphylococcus aureus; conditions: Staphylococcus aureus, ATCC12598, S. aureus ATCC 12598; substance alone; read-out: MIC
[4] = system: S. aureus ATCC BAA-1556 USA300; experiment: Broth microdilution MIC; assay type: cell-based, Staphylococcus aureus; conditions: Staphylococcus aureus, S. aureus ATCC BAA-1556 USA300; substance alone
[5] = system: K. pneumoniae ATCC 700603; experiment: Broth microdilution MIC; assay type: cell-based, Klebsiella pneumoniae; conditions: for MIC: Klebsiella pneumoniae, ATCC700603, K. pneumoniae ATCC 700603, substance alone, read-out: MIC
[6] = system: A. baumannii ATCC 17978; experiment: Broth microdilution MIC; assay type: cell-based; conditions: Acinetobacter baumannii, ATCC17978, substance alone
[7] = system: P. aeruginosa ATCC 27853; experiment: Broth microdilution MIC; assay type: cell-based, Pseudomonas aeruginosa; conditions: for MIC: Pseudomonas aeruginosa, ATCC27853, P. aeruginosa ATCC 27853
[8] = system: S. enterica ATCC 14028; experiment: Broth microdilution MIC; assay type: cell-based; conditions: Salmonella enterica, ATCC14028, substance alone
[9] = system: E. coli ATCC 25922; experiment: Broth microdilution MIC; assay type: cell-based; conditions: Escherichia coli
[10] = system: CaCo-2 (ATCC HTB-37) colon–rectal cancer cell line; experiment: MTT cytotoxicity assay on CaCo-2 cells; assay type: cell-based, human; conditions: for IC50: Homo sapiens; for Percentage of cell growth, antibiotic / Percentage of cell growth, antibiotic + PB4 0.2 µM: CaCo-2
Protocol: To fully assess the biological activity of the new molecules, they were tested at different concentrations on the CaCo-2 (ATCC HTB-37) colon–rectal cancer cell line. These human cancer cells were exposed to compound solutions ranging in concentration from 100 µM to 0.01 µM. As a reference compound for these assays, we used 5-Fluorouracil (5-FU), a pyrimidine analog from the antimetabolite family.
The MTT assay was also performed for the selected antibiotics to evaluate the effect of their combined treatment with PB4.
To evaluate the effect of the heteroaryl ethylene compounds and the antibiotics, an MTT ([3-(4,5-dimethylthiazol-2-yl)-2,5-diphenyltetrazolium bromide]) assay was performed as previously described. […] Both concentrations were also tested in combination with PB4 0.2 µM. All antibiotics were provided by Thermo Scientific^TM Oxoid^TM, Basingstoke, UK. Twenty-four hours after plating, the cells were treated with 20 μL of each solution. Untreated cells were used as controls. […] The IC50 values were calculated by nonlinear regression analysis using GraphPad Prism 6.0 software.

[11] = system: Gram-positive strains; experiment: Broth microdilution MIC, summary over Gram-positive strains; assay type: cell-based
[12] = system: Gram-negative bacteria; experiment: Broth microdilution MIC, summary over Gram-negative bacteria; assay type: cell-based; conditions: summary in text over Gram-negative bacteria
[13] = system: E. faecalis ATCC 29212; parameters: method as in earlier work; conditions: quality control range, ref CLSI; cited from earlier work
[14] = system: S. aureus ATCC 29213; parameters: method as in earlier work; conditions: quality control range, ref CLSI; cited from earlier work
[15] = system: P. aeruginosa ATCC 27853; parameters: method as in earlier work; conditions: quality control range, ref CLSI; cited from earlier work
[16] = system: E. coli ATCC 25922; parameters: method as in earlier work; conditions: quality control range, ref CLSI; cited from earlier work
[17] = ATCC25922, substance alone, read-out: MIC
[18] = quality control strain, technical positive control, read-out: MIC (quality control)

C[n+]1c(/C=C/c2ccc(-c3cccs3)s2)cccc1/C=C/c1ccc(-c2cccs2)s1 [GC-VI-70]
MIC ([1]; substance alone, read-out: MIC): 2 µg/mL and 3.32 µM
MIC ([2]; substance alone, read-out: MIC): 16 µg/mL and 26.6 µM
MIC [3]: 16 µg/mL and 26.6 µM
MIC [4]: 4 µg/mL and 6.65 µM
MIC [5]: > 128 µg/mL and > 213 µM
MIC [6]: 32 µg/mL and 53.2 µM
MIC ([7]; substance alone, read-out: MIC): > 128 µg/mL and > 213 µM
MIC [8]: > 128 µg/mL and > 213 µM
MIC [9, 17]: 128 µg/mL and 213 µM
IC50 ([10]; Caco-2, 24 h, CaCo-2 cell line, MTT, 24 h of treatment, read-out: IC50 at 24 h): 940 nM
IC50 ([10]; Caco-2, 48 h, CaCo-2 cell line, MTT, 48 h of treatment, read-out: IC50 at 48 h): 3760 nM
IC50 ([10]; Caco-2, CaCo-2 cells, time not given, read-out: IC50 value on CaCo-2 cells): 320 nM
MIC [11]: 2 to 16 µg/mL
MIC values for Gram-negative bacteria [12]: high MIC values

CNC(C)C1CCC(N)C(OC2C(N)CC(N)C(OC3OCC(C)(O)C(NC)C3O)C2O)O1 (stereo not drawn) [Gentamicin, gentamicin, reference compound]
Reduction of antibiotic MIC by PB4 ([1]; E. faecalis ATCC 29212, antibiotic + PB4 vs antibiotic alone): 2 -fold log reduction
MIC [1, 18]: 8 µg/mL (≈ 16.8 µM)
MIC ([1]; substance alone, read-out: MIC): 4 µg/mL (≈ 8.38 µM)
MIC [2, 18]: 0.5 µg/mL (≈ 1.05 µM)
MIC ([2]; substance alone, read-out: MIC): 0.5 µg/mL (≈ 1.05 µM)
MIC [3]: 0.5 µg/mL (≈ 1.05 µM)
MIC [4]: 0.5 µg/mL (≈ 1.05 µM)
Reduction of antibiotic MIC by PB4 ([5]; K. pneumoniae ATCC 700603, antibiotic + PB4 vs antibiotic alone): 2 -fold log MIC reductions
MIC [5]: 8 µg/mL (≈ 16.8 µM)
MIC [6]: 2 µg/mL (≈ 4.19 µM)
Reduction of antibiotic MIC by PB4 ([7]; P. aeruginosa ATCC 27853, antibiotic + PB4 vs antibiotic alone): 2 -fold log MIC reductions
MIC [7, 18]: 2 µg/mL (≈ 4.19 µM)
MIC ([7]; substance alone, read-out: MIC): 2 µg/mL (≈ 4.19 µM)
MIC [8]: 1 µg/mL (≈ 2.09 µM)
MIC ([9]; ATCC25922, quality control strain, technical positive control, read-out: MIC (quality control)): 0.5 µg/mL (≈ 1.05 µM)
MIC [9, 17]: 0.5 µg/mL (≈ 1.05 µM)
Percentage of cell growth, antibiotic ([10]; antibiotic alone at MIC for E. faecalis ATCC 29212, 24 h): 158.2%
Percentage of cell growth, antibiotic ([10]; antibiotic alone at MIC for E. faecalis ATCC 29212, 48 h): 247.5%
Percentage of cell growth, antibiotic ([10]; antibiotic alone at sub-MIC (half-MIC), 24 h): 132.3%
Percentage of cell growth, antibiotic ([10]; antibiotic alone at sub-MIC (half-MIC), 48 h): 271.7%
Percentage of cell growth, antibiotic + PB4 0.2 µM ([10]; antibiotic at MIC + PB4 0.2 µM, 24 h): 125.6%
Percentage of cell growth, antibiotic + PB4 0.2 µM ([10]; antibiotic at MIC + PB4 0.2 µM, 48 h): 141.1%
Percentage of cell growth, antibiotic + PB4 0.2 µM ([10]; antibiotic at sub-MIC + PB4 0.2 µM, 24 h): 132.4%
Percentage of cell growth, antibiotic + PB4 0.2 µM ([10]; antibiotic at sub-MIC + PB4 0.2 µM, 48 h): 99.2%
MIC CLSI Range [13]: 4 to 16 µg/mL
MIC CLSI Range [14]: 0.125 to 1 µg/mL
MIC CLSI Range [15]: 0.5 to 2 µg/mL
MIC CLSI Range [16]: 0.25 to 1 µg/mL
